Measurements taken from US9982152B2, “Active energy ray curable composition, cured product, composition storage container, two-dimensional or three-dimensional image forming apparatus, and two-dimensional or three-dimensional image forming method” (Ricoh Company, Ltd., priority 2016, dated 2018).
Like-named read-outs stand apart in the source and are kept apart here.

Columns and labels:
[1] = data source SDS, GHS hazard category for skin sensitizers or negative in a skin sensitization test, cited from earlier work
[2] = LLNA (Local Lymph Node Assay), SI (Stimulus Index); assay type: in vivo; details: for Skin Sensitization Potential: judged from SI by LLNA; for SI (by LLNA): measured according to method of JP-2012-140593-A
From the text: In the present disclosure, compounds having skin sensitization potential refer to those determined to be positive in a skin sensitization test. Hereinafter, such compounds may also be referred to as “skin-sensitizing compounds” or “skin sensitizers”. The skin sensitization test is not limited to a specific test. As an example of the skin sensitization test, LLNA (Local Lymph Node Assay) is known that evaluates the degree of sensitization potential by SI (Stimulus Index). SI of 3 or more is determined to be positive.
Skin sensitization information described in Table 1 was obtained from SDSs available in Japan or other countries. SI (determined by LLNA) values described in Table 1 were measured according to a method described in JP-2012-140593-A.

## C=CC(=O)NCCO [(A-2), N-(2-Hydroxyethyl)acrylamide]
[1]
  Skin Sensitization Potential: Negative
[1]; listed as HEAA
  Skin Sensitization Potential: negative

## C=C(C)C(=O)OCC(C)(C)COC(=O)C(=C)C [(A-5), Neopentyl glycol dimethacrylate]
[2]
  Skin Sensitization Potential: Negative
  SI (by LLNA): SI = 2.0
[2]; listed as neopentyl glycol dimethacrylate
  Skin Sensitization Potential: non-skin-sensitizing

## Cc1cc(C)c(C(=O)P(=O)(c2ccccc2)c2ccccc2)c(C)c1 [(B1-1), Diphenyl(2,4,6-trimethylbenzoyl)phosphine oxide]
[1]
  Skin Sensitization Potential: 1B
[1]; listed as IRGACURE TPO
  Skin Sensitization Potential: sub-category 1B

## Cc1cc(C)c(C(=O)P(=O)(C(=O)c2c(C)cc(C)cc2C)c2ccccc2)c(C)c1 [(B1-2), Phenylbis(2,4,6-trimethylbenzoyl)phosphine oxide]
[1]
  Skin Sensitization Potential: Category 1
[1]; listed as IRGACURE 819
  Skin Sensitization Potential: category 1

## CCCCCCC(=NOC(=O)c1ccccc1)C(=O)c1ccc(Sc2ccccc2)cc1 [(B1-3), 1-[4-(Phenylthio)phenyl]octane-1,2-dione 2-(o-benzoyloxime)]
[1]
  Skin Sensitization Potential: Category 1
[1]; listed as IRGACURE OXE01
  Skin Sensitization Potential: category 1

## CCn1c2ccc(C(=O)c3ccccc3C)cc2c2cc(C(C)=NOC(C)=O)ccc21 [(B1-4), 1-[9-Ethyl-6-(2-methylbenzoyl)-9H-carbazole-3-yl]ethanone o-acetyloxime]
[1]
  Skin Sensitization Potential: 1B
[1]; listed as IRGACURE OXE02
  Skin Sensitization Potential: sub-category 1B

## CSc1ccc(C(=O)C(C)(C)N2CCOCC2)cc1 [(B2-1), 2-Methyl-1-[4-(methylthio)phenyl]-2-morpholinopropane-1-one]
[1]
  Skin Sensitization Potential: Negative
[1]; listed as IRGACURE 907
  Skin Sensitization Potential: negative

## CCC(Cc1ccc(C)cc1)(C(=O)c1ccc(N2CCOCC2)cc1)N(C)C (stereo not drawn) [(B2-2), 2-(Dimethylamino)-2-[(4-methylphenyl)methyl]-1-(4-morpholinophenyl)butane-1-one]
[1]
  Skin Sensitization Potential: Negative
[1]; listed as IRGACURE 379
  Skin Sensitization Potential: negative

## O=C(c1ccccc1)C1(O)CCCCC1 [(B2-3), 1-Hydroxycyclohexyl phenyl ketone]
[1]
  Skin Sensitization Potential: Negative
[1]; listed as IRGACURE 184
  Skin Sensitization Potential: negative

## CC(C)(O)C(=O)c1ccc(OCCO)cc1 [(B2-4), 1-[4-(2-hydroxyethoxy)phenyl]-2-hydroxy-2-methylpropane-1-one]
[1]
  Skin Sensitization Potential: Negative
[1]; listed as IRGACURE 2959
  Skin Sensitization Potential: negative

## Tricyclodecane dimethanol dimethacrylate [(A-4)]
[2]
  Skin Sensitization Potential: Negative
  SI (by LLNA): SI = 1.3
[2]; listed as tricyclodecane dimethanol dimethacrylate
  Skin Sensitization Potential: non-skin-sensitizing
